ChEMBL document CHEMBL5634071, “Fluorine in anti-HIV drugs approved by FDA from 1981 to 2023” (Eur J Med Chem, 2023)
pIC50, pKd, pKi: −log10 of the molar value.

What was measured:
[1] = Cytotoxicity against human CEM cells; assay type: toxicity, cell-based; conditions: CEM cells (CCRF-CEM)
[2] = system: Human immunodeficiency virus 1; experiment: Antiviral activity against HIV-1 LAV infected in human CEM cells; assay type: functional, organism-based; conditions: Human immunodeficiency virus 1, LAV, CCRF-CEM
[3] = biological target: Cytochrome P450 2D6 (Homo sapiens, UniProt P10635); experiment: Inhibition of CYP2D6 (unknown origin); assay type: ADME
Chain of Cytochrome P450 2D6 (P10635 whole entry): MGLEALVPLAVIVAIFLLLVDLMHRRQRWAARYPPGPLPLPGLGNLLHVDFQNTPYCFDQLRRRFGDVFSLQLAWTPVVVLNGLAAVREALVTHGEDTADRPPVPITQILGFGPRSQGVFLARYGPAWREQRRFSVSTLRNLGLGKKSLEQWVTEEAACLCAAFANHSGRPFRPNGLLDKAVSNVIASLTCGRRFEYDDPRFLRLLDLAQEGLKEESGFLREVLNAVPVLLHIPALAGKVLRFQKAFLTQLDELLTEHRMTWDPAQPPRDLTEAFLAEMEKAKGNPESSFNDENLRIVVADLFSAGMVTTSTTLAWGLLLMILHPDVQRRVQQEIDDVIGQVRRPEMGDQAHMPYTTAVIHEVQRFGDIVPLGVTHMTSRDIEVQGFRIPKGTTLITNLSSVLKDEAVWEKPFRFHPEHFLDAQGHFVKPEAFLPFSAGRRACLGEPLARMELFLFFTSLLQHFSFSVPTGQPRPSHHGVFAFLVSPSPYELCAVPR

[4] = biological target: C-C chemokine receptor type 5 (Homo sapiens, UniProt P51681); experiment: Displacement of [125I]MIP-1alpha from CCR5 receptor (unknown origin) expressed in HEK293 cells; assay type: cell-based
Chain of C-C chemokine receptor type 5 (P51681 whole entry): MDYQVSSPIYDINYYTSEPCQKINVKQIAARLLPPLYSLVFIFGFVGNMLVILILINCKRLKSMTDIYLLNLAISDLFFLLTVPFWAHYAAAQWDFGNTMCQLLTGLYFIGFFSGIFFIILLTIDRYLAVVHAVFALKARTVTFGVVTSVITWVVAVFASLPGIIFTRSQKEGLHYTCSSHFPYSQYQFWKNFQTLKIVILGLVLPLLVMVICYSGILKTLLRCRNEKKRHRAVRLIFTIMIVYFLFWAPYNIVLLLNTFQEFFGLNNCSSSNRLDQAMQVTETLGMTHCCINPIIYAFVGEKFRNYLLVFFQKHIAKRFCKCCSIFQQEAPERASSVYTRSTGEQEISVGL

[5] = system: Human immunodeficiency virus 1; experiment: Antiviral activity against NNRTI-resistant HIV-1 harboring K103N/Y181C double mutant assessed as inhibition of viral growth; assay type: functional
[6] = system: Human immunodeficiency virus 1; experiment: Antiviral activity against NNRTI-resistant HIV-1 harboring K103N mutant assessed as inhibition of viral growth; assay type: functional
[7] = system: Human immunodeficiency virus 1; experiment: Antiviral activity against NNRTI-resistant HIV-1 harboring Y181C mutant assessed as inhibition of viral growth; assay type: functional
[8] = Cytotoxicity against human CEM cells measured after 6 days; conditions: CEM cells (CCRF-CEM)
[9] = Inhibition of HIV integrase; parameters: species or system Human immunodeficiency virus
[10] = Inhibition of wildtype HIV Reverse transcriptase; parameters: species or system Human immunodeficiency virus
[11] = system: Human immunodeficiency virus; experiment: Antiviral activity agaisnt HIV BAL infected in human PM1 cells assessed as inhibition of viral replication; assay type: functional, organism-based; conditions: Human immunodeficiency virus 1, BAL
[12] = biological target: Human immunodeficiency virus type 1 protease (Human immunodeficiency virus 1, UniProt Q72874); experiment: Inhibition of HIV-1 protease
[13] = system: Human immunodeficiency virus 1; experiment: Antiviral activity against HIV-1 IIIB infected in human H9 cells; assay type: functional, organism-based; conditions: Human immunodeficiency virus 1, IIIB
[14] = biological target: T1, DNA polymerase subunit gamma-1 (Homo sapiens) (UniProt P54098); experiment: Ratio of K for biding affinity to human DNA polymerase gamma assessed as polymerization rate to Kd for binding affinity to human DNA polymerase gamma
T1 sequence (whole entry): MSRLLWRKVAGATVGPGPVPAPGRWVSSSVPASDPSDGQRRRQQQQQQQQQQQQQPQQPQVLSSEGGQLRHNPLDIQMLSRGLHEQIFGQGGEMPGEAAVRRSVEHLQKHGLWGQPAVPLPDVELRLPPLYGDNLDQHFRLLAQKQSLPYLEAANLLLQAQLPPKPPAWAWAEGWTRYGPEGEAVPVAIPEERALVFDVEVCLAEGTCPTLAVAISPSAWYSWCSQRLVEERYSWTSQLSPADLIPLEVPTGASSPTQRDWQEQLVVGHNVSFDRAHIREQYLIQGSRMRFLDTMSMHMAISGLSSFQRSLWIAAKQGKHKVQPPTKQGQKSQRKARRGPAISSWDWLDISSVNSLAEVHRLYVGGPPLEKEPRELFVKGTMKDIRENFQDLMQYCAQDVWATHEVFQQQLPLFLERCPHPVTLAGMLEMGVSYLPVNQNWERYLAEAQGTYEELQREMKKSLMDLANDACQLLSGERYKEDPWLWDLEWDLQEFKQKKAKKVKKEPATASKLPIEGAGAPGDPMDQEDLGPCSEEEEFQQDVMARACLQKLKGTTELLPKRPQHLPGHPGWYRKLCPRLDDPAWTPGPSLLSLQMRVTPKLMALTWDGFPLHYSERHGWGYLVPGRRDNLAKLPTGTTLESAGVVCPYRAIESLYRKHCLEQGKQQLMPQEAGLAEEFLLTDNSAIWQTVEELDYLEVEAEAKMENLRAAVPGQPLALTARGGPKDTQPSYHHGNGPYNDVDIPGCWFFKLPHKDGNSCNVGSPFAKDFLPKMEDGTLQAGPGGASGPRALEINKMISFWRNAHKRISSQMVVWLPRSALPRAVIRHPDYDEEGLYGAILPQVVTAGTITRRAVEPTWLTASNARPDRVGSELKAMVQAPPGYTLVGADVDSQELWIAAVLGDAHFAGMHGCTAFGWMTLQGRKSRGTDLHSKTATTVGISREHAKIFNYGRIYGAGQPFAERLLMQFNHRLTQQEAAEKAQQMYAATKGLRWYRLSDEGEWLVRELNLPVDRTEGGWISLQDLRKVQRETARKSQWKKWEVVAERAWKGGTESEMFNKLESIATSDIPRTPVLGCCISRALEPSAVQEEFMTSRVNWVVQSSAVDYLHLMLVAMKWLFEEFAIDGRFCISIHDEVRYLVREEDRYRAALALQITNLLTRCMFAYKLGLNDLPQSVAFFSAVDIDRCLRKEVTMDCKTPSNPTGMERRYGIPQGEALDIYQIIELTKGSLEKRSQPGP

[15] = biological target: T1, DNA polymerase subunit gamma-1 (Homo sapiens); experiment: Binding affinity to human DNA polymerase gamma assessed as polymerization rate
[16] = biological target: T2, DNA polymerase subunit gamma-1 (Homo sapiens, UniProt P54098); experiment: Binding affinity to human DNA polymerase gamma assessed as dissociation constant
T2 sequence (P54098 whole entry): T1 sequence (whole entry)

[17] = system: Human immunodeficiency virus; experiment: Antiviral activity against HIV IIIB infected in human MT4 cells; assay type: functional, organism-based; conditions: Human immunodeficiency virus 1, IIIB
[18] = system: Human immunodeficiency virus 1; experiment: Antiviral activity against HIV-1 RF infected in human MT4 cells assessed as reduction in viral RNA production measured after 3 days by plaque assay; assay type: functional; conditions: Human immunodeficiency virus 1, RF, MT4, 72 h; time 3 day
[19] = Half-life in human administered as single dose; assay type: ADME
[20] = system: Human immunodeficiency virus 1; experiment: Antiviral activity against HIV-1 infected in PBMC (unknown origin) assessed as inhibition of viral replication by ELISA; assay type: functional, organism-based; conditions: Human immunodeficiency virus 1, PBMC
[21] = system: Human immunodeficiency virus 1; experiment: Antiviral activity against HIV-1 NL4-3 infected in human MT4 cells assessed as reduction in virus induced cytopathic effect by XTT assay; assay type: functional, organism-based; conditions: Human immunodeficiency virus 1, NL4-3, MT4
[22] = biological target: Human immunodeficiency virus type 1 Gag protein (Human immunodeficiency virus 1, UniProt Q77YG1); experiment: Binding affinity to HIV1 Gag assessed as dissociation constant
[23] = Metabolic stability in rhesus monkey hepatocytes assessed as half-life; assay type: ADME, cell-based, Macaca mulatta, Hepatocyte
[24] = system: Human immunodeficiency virus 1; experiment: Antiviral activity against HIV-1 infected in human PBMC; assay type: functional, organism-based; conditions: Human immunodeficiency virus 1, PBMC
[25] = system: Human immunodeficiency virus; experiment: Antiviral activity against HIV; assay type: functional, organism-based; conditions: Human immunodeficiency virus 1
[26] = biological target: hERG (Homo sapiens, UniProt Q12809); experiment: Inhibition of tritium labelled dofetilide binding to hERG expressed in HEK293 cells at 300 nM relative to control; assay type: toxicity, cell-based; conditions: HEK293 cells that express hERG, probe tritium labelled dofetilide
Chain of hERG (Q12809 whole entry): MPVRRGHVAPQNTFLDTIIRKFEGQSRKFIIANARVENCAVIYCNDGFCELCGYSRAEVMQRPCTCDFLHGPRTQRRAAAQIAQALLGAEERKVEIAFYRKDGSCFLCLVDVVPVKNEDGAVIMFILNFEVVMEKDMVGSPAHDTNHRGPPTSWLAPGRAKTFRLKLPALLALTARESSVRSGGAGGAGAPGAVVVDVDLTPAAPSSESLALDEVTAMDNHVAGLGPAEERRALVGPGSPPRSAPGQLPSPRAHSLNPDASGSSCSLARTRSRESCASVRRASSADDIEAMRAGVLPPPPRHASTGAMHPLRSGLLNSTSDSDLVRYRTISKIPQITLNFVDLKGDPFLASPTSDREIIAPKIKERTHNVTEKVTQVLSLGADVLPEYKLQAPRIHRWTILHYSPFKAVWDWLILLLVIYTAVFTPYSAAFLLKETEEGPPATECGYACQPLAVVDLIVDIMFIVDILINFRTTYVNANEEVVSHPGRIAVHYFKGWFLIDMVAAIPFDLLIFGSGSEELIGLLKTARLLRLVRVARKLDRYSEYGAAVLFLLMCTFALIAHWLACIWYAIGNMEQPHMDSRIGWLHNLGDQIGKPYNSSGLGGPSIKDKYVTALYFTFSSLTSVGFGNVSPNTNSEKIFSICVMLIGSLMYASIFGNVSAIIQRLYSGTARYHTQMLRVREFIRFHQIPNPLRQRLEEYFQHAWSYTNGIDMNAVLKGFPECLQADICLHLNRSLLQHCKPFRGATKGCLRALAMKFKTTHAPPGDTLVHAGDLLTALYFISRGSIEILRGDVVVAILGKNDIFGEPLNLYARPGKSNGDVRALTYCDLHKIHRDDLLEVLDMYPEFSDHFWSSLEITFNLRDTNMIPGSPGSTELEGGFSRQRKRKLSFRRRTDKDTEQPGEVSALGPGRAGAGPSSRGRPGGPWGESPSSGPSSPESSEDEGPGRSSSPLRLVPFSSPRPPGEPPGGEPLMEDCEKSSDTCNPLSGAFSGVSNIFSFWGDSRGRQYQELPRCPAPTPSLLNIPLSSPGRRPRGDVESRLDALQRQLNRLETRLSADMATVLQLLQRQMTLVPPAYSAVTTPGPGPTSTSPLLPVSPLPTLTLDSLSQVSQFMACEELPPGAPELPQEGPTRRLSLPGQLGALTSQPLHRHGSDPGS

Nc1ccn([C@H]2CS[C@@H](CO)O2)c(=O)n1
CC50 [1]: 2700 nM
pIC50 [2]: 7.00

Cc1nc2ccccc2n1C1CCN(CCC(c2ccccc2)c2ccccc2)CC1
pIC50 [3]: 6.15
pIC50 [4]: 8.40

Cn1c(Cn2ccc(C(F)(F)F)c(Oc3cc(Cl)cc(C#N)c3)c2=O)n[nH]c1=O [DORAVIRINE]
IC95 [5]: 55 nM
IC95 [6]: 43 nM
IC95 [7]: 27 nM

Nc1nc(=O)n([C@H]2CS[C@@H](CO)O2)cc1F
CC50 at 144 h [8]: > 100000 nM
pIC50 [2]: 5.85

O=C(/C=C(\O)c1nc[nH]n1)c1ccc(Cc2ccc(F)cc2)o1 [S-1360]
pIC50 [9]: 7.70

NS(=O)(=O)c1ccc(NC(=O)COc2cccc(Oc3ccccc3)c2)c(Cl)c1
pIC50 [10]: 7.28

Cc1cc(C)c(-n2nnnc2SCC(=O)Nc2ccc(S(N)(=O)=O)cc2Cl)c(C)c1
pIC50 [10]: 8.39

Cc1nc2ccccc2n1C1CCN(CC[C@@H](NC(=O)c2ccccc2)c2ccccc2)CC1
pIC50 [4]: 6.24

Cc1nnc(C(C)C)n1C1CC2CCC(C1)N2CC[C@H](NC(=O)C1CCC1)c1ccccc1 (some centres not stated)
IC90 [11]: 8 nM

CCC[C@]1(CCc2ccccc2)CC(O)=C([C@H](CC)c2cccc(NS(=O)(=O)c3ccc(C#N)cn3)c2)C(=O)O1
pKi [12]: 10.40
pIC50 [13]: 6.96
IC90 [13]: 890 nM

Nc1ccn([C@H]2CSC(CO)O2)c(=O)n1 (mixture of isomers)
CC50 [1]: 52600 nM
pIC50 [2]: 7.15

Nc1ccn([C@H]2C[C@H](O)[C@@H](COP(=O)(O)OP(=O)(O)OP(=O)(O)O)O2)c(=O)n1 [DEOXYCYTIDINE TRIPHOSPHATE]
Ratio [14]: 40 µM⁻¹ s⁻¹
K [15]: 44 s⁻¹
pKd [16]: 5.96

O=C1Nc2ccc(Cl)cc2[C@@](C#Cc2ccccn2)(C2CC2)N1
pIC50 [17]: 7.92

O=C1Nc2ccc(Cl)cc2[C@@](C#CC2CC2)(C(F)(F)F)N1
IC90 [18]: 2 nM

Cc1nnc(C(C)C)n1C1CC2CCC(C1)N2CC[C@H](NC(=O)CCC(F)(F)F)c1ccccc1 (some centres not stated)
IC90 [11]: 14 nM

O=C1Nc2ccc(Cl)cc2[C@@](C#CC2CC2)(C(F)(F)F)O1 [EFAVIRENZ]
half-life [19]: < 52 h
IC90 [18]: 1.7 nM

O=C1Nc2ccc(Cl)cc2[C@@](/C=C/C2CC2)(C(F)(F)F)N1
IC90 [18]: 2.1 nM

Cc1nc2ccccc2n1C1CCN(CC[C@H](NC(=O)C2CCC2)c2ccccc2)CC1
pIC50 [11]: 7.14

Cc1cn([C@H]2C[C@H](N=[N+]=[N-])[C@@H](CO)O2)c(=O)[nH]c1=O [ZIDOVUDINE]
pIC50 [20]: 7.26

O=C1Nc2ccc(Cl)cc2[C@](C#Cc2ccccn2)(C2CC2)N1
pIC50 [17]: 5.03

CN(C(=O)[C@@H](CCc1ccccc1)NC(=O)Cc1c[nH]c2ccccc12)c1ccccn1
pIC50 [21]: 5.35

Nc1nc(=O)n([C@@H]2CS[C@H](COP(=O)(O)OP(=O)(O)OP(=O)(O)O)O2)cc1F [EMTRICITABINE 5'-TRIPHOSPHATE]
Ratio [14]: < 1.4 10^-4/µM/s
K [15]: < 8.6 10^-3/s
pKd [16]: 4.20

Cc1[nH]c2ccccc2c1CC(=O)N[C@@H](Cc1ccccc1)C(=O)N(C)c1ccccn1
pIC50 [21]: 6.10

Nc1nc(=O)n(C2CSC(CO)O2)cc1F (racemic) [EMTRICITABINE, (+/-)-]
CC50 at 144 h [8]: > 100000 nM
pIC50 [2]: 7.10

CC(C)(C#Cc1ccc(-c2ccc(Cl)c3c(NS(=O)(=O)C4CC4)nn(CC(F)F)c23)c([C@H](Cc2cc(F)cc(F)c2)NC(=O)Cn2nc(C(F)(F)F)c3c2C(F)(F)[C@@H]2C[C@H]32)n1)S(C)(=O)=O
pKd [22]: 8.62
half-life [23]: 130 h
pIC50 [24]: 9.89

CCC(c1ccccc1)c1c(O)c2ccccc2oc1=O (configuration not stated) [PHENPROCOUMON]
pIC50 [25]: 4.00

Cc1nc2cnccc2n1C1CCN(CCC(c2ccccc2)c2ccccc2)CC1
pIC50 [3]: 7.40

Cc1nnc(C(C)C)n1C1CC2CCC(C1)N2CC[C@H](NC(=O)C1CCCC1)c1ccccc1 (some centres not stated)
IC90 [11]: 1.6 nM

Cc1nnc(C(C)C)n1[C@H]1C[C@H]2CC[C@@H](C1)N2CC[C@H](NC(=O)C1CCC(F)(F)CC1)c1ccccc1 [MARAVIROC]
IC90 [11]: 1 nM

Nc1ccn([C@@H]2CS[C@H](COP(=O)(O)OP(=O)(O)OP(=O)(O)O)O2)c(=O)n1 [LAMIVUDINE TRIPHOSPHATE]
Ratio [14]: 0.01 µM⁻¹ s⁻¹
K [15]: 0.13 s⁻¹
pKd [16]: 4.89

Nc1ccn([C@H]2CC[C@@H](CO)O2)c(=O)n1 [ZALCITABINE]
pIC50 [20]: 7.96

CCC[C@@]1(CCc2ccccc2)CC(O)=C([C@@H](CC)c2cccc(NS(=O)(=O)c3ccc(C#N)cn3)c2)C(=O)O1
pKi [12]: 10.00
pIC50 [13]: 6.31
IC90 [13]: 1000 nM

Cc1nc2ccccc2n1C1CCN(CC[C@H](NC(=O)c2ccccc2)c2ccccc2)CC1
pIC50 [4]: 7.89

Cc1[nH]c2ccccc2c1CC(=O)N[C@@H](Cc1ccccc1)C(=O)N(C)c1ccccc1
pIC50 [21]: 6.24

CCC[C@]1(CCc2ccccc2)CC(O)=C([C@@H](CC)c2cccc(NS(=O)(=O)c3ccc(C#N)cn3)c2)C(=O)O1
pKi [12]: 9.92
pIC50 [13]: < 6.00
IC90 [13]: > 1000 nM

Cc1nnc(C(C)C)n1C1CC2CCC(C1)N2CC[C@H](NC(=O)C1CCOCC1)c1ccccc1 (some centres not stated)
inhibition at 0.3 µM [26]: 0%
IC90 [11]: 125 nM

C[C@@H]1CCO[C@H]2Cn3cc(C(=O)NCc4ccc(F)cc4F)c(=O)c(O)c3C(=O)N12 [DOLUTEGRAVIR]
pIC50 [9]: 8.57

O=c1[nH]cnc2c1ncn2[C@H]1CC[C@@H](CO)O1 [DIDANOSINE]
pIC50 [20]: 6.12

Cc1nc2ccccc2n1C1CCN(CCC(NC(=O)c2ccccc2)c2ccccc2)CC1 (configuration not stated)
pIC50 [11]: 6.68
pIC50 [4]: 7.35

Nc1ccn([C@@H]2CS[C@H](CO)O2)c(=O)n1 [LAMIVUDINE]
CC50 [1]: > 100000 nM
pIC50 [2]: 7.15

Cc1nc2ccccc2n1C1C[C@H]2CC[C@@H](C1)N2CC[C@H](NC(=O)C1CCC1)c1ccccc1 (some centres not stated)
inhibition at 0.3 µM [26]: 80%
IC90 [11]: 3 nM
